In patent publication US20180327367A1, “MACROCYCLIC BROAD SPECTRUM ANTIBIOTICS” (priority 2015, published 2018):
In brackets after ≈: the same amount, converted by molar mass. Where two headings read alike, the source gives them in different places.

Assays:
Assay type in all cases: cell-based
[1] = tested on: Escherichia coli MC4100 harboring the IMP4213 (E. coli IMP); assay: microbe, parasite or virus in culture; details: Escherichia coli, 22 h
Method in brief: (§1)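 CLSI broth microdilution in cation-adjusted Mueller Hinton Broth with 0.002% Tween-80; inoculum final OD600 0.0005, 22 hours at 35° C. Ten 2-fold dilutions starting at 4 μg/mL (protocol 2) or 0.5 μg/mL (protocol 3).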

[2] = tested on: Methicillin Resistant Staphylococcus aureus strain USA 300, NRS384; assay: Minimum inhibitory concentration, broth micro-dilution (CLSI), S. aureus; details: Staphylococcus aureus, MRSA / NRS 384 / USA300, 22 h
Method in brief: as §1

[3] = tested on: Escherichia coli ATCC 25922; assay: Minimum inhibitory concentration, broth micro-dilution (CLSI), E. coli; details: Escherichia coli, ATCC25922, 22 h
[4] = read-out: MIC (μg/mL) E. coli IMP
[5] = read-out: MIC (μg/mL) S. aureus
[6] = read-out: MIC (μg/mL) E. coli IMP, E. coli MC4100 IMP4213, increased outer-membrane permeability, 35° C., 22 hours
[7] = MRSA USA 300 NRS384, 35° C., 22 hours, read-out: MIC (μg/mL) S. aureus
[8] = E. coli ATCC 25922, 35° C., 22 hours, read-out: MIC (μg/mL) E. coli
[9] = read-out: MIC (μg/mL) S. aureus, MRSA USA 300 NRS384, 35° C., 22 hours
[10] = read-out: MIC (μg/mL) E. coli, E. coli ATCC 25922, 35° C., 22 hours

| Structure (SMILES) | MIC [1, 4] | MIC [2, 5] | MIC ([3]; read-out: MIC (μg/mL) E. coli) | MIC [1, 6] | MIC [2, 7] | MIC [3, 8] | MIC [2, 9] | MIC [3, 10] |
| --- | --- | --- | --- | --- | --- | --- | --- | --- |
| CCCCCCCc1ccc(C(=O)N(C)[C@@H](CCN)C(=O)N(C)[C@@H]2C(=O)N[C@@H](C)C(=O)N[C@H](C(=O)NCC#N)Cc3ccc(OCCN)c(c3)-c3cc2ccc3OCCN)cc1 [Compound 396] | 0.094 µg/mL (≈ 0.11 µM) | 0.094 µg/mL (≈ 0.11 µM) | 16 µg/mL (≈ 18.7 µM) | – | – | – | – | – |
| CCCCc1ccc(C(=O)N(C)[C@@H](CCN)C(=O)N(C)[C@@H]2C(=O)N[C@@H](C)C(=O)N[C@H](C(=O)NCC#N)Cc3ccc(OCCN)c(c3)-c3cc2ccc3OCCN)c(C)c1 [Compound 397] | – | – | – | 0.38 µg/mL (≈ 0.46 µM) | 3 µg/mL (≈ 3.63 µM) | 64 µg/mL (≈ 77.5 µM) | – | – |
| CCCCCCCCCCCC(=O)N(C)[C@@H](CCN)C(=O)N(C)[C@@H]1C(=O)N[C@@H](C)C(=O)N[C@H](C(=O)NCC#N)Cc2ccc(OCCN)c(c2)-c2cc1ccc2OCCN [Compound 398] | – | – | – | 0.13 µg/mL (≈ 0.156 µM) | 0.13 µg/mL (≈ 0.156 µM) | 16 µg/mL (≈ 19.2 µM) | – | – |
| CCCCCCCCCC(=O)N[C@@H](CO)C(=O)N(C)[C@@H](CCN)C(=O)N(C)[C@@H]1C(=O)N[C@@H](C)C(=O)N[C@H](C(=O)NCC#N)Cc2ccc(OCCN)c(c2)-c2cc1ccc2OCCN [Compound 399] | – | – | – | 0.19 µg/mL (≈ 0.213 µM) | – | – | 0.25 µg/mL (≈ 0.28 µM) | 16 µg/mL (≈ 17.9 µM) |
| CCCCCCCCNC(=O)N[C@@H](CCN)C(=O)N(C)[C@@H]1C(=O)N[C@@H](C)C(=O)N[C@H](C(=O)NCC#N)Cc2ccc(OCCN)c(c2)-c2cc1ccc2OCCN [Compound 402] | – | – | – | 0.19 µg/mL (≈ 0.24 µM) | 0.38 µg/mL (≈ 0.479 µM) | 32 µg/mL (≈ 40.4 µM) | – | – |
| CCCCCCCCc1ccc(C(=O)N[C@@H](CCN)C(=O)N(C)[C@@H]2C(=O)N[C@@H](C)C(=O)N[C@H](C(=O)NCC#N)Cc3ccc(OCCN)c(c3)-c3cc2ccc3OCCN)c(OCC(=O)O)c1 [Compound 409] | – | – | – | < 0.0039 µg/mL | 0.25 µg/mL (≈ 0.269 µM) | 0.5 µg/mL (≈ 0.539 µM) | – | – |
| CCCCCCCCc1ccc(C(=O)N[C@@H](CCN)C(=O)N(C)[C@@H]2C(=O)N[C@@H](C)C(=O)N[C@H](C(=O)NCC#N)Cc3ccc(OCCN)c(c3)-c3cc2ccc3OCCN)c(OCC(=O)NCC#N)c1 [Compound 410] | – | – | – | 0.13 µg/mL (≈ 0.135 µM) | 0.13 µg/mL (≈ 0.135 µM) | 6 µg/mL (≈ 6.21 µM) | – | – |
| Cc1cc(-n2cccn2)ccc1C(=O)N[C@@H](CCN)C(=O)N(C)[C@@H]1C(=O)N[C@@H](C)C(=O)N[C@H](C(=O)NCC#N)Cc2ccc(OCCN)c(c2)-c2cc1ccc2OCCN [Compound 411] | 0.5 µg/mL (≈ 0.608 µM) | 2 µg/mL (≈ 2.43 µM) | 16 µg/mL (≈ 19.5 µM) | – | – | – | – | – |
| CCCCCCCCc1ccc(C(=O)N[C@@H](CCN)C(=O)N(C)[C@@H]2C(=O)N[C@@H](C)C(=O)N[C@H](C(=O)NCC#N)Cc3ccc(OCCN)c(c3)-c3cc2ccc3OCCN)c(/C=C/C(=O)O)c1 [Compound 414] | 0.25 µg/mL (≈ 0.271 µM) | 0.5 µg/mL (≈ 0.541 µM) | 64 µg/mL (≈ 69.3 µM) | – | – | – | – | – |
| C[C@@H]1NC(=O)[C@@H](N(C)C(=O)[C@H](CCCCN)NC(=O)c2ccc(-c3ccc(Cl)cc3)cc2)c2ccc(O)c(c2)-c2cc(ccc2O)C[C@@H](C(=O)NCC#N)NC1=O [Compound 416] | – | – | – | 2 µg/mL (≈ 2.52 µM) | – | – | 0.5 µg/mL (≈ 0.629 µM) | > 64 µg/mL |
| C[C@@H]1NC(=O)[C@@H](N(C)C(=O)[C@H](CCCCN)NC(=O)c2ccc(-c3ccc(Cl)cc3)cc2)c2ccc(O)c(c2)-c2cc(ccc2O)C[C@@H](C(=O)N[C@@H](C)C#N)NC1=O [Compound 417] | – | – | – | 4 µg/mL (≈ 4.95 µM) | 13 µg/mL (≈ 16.1 µM) | > 64 µg/mL | – | – |
| C[C@@H]1NC(=O)[C@@H](N(C)C(=O)[C@H](CCCCN)NC(=O)c2ccc(-c3ccc(Cl)cc3)cc2)c2ccc(O)c(c2)-c2cc(ccc2O)C[C@@H](C(=O)N[C@H](C#N)CO)NC1=O [Compound 418] | – | – | – | > 4 µg/mL | 4 µg/mL (≈ 4.85 µM) | > 64 µg/mL | – | – |
| CCCCCCCCCCCC(=O)N[C@@H](CO)C(=O)N(C)[C@@H]1C(=O)N[C@@H](C)C(=O)N[C@H](C(=O)N[C@H](C#N)CC)Cc2ccc(OCCN)c(c2)-c2cc1ccc2OCCN [Compound 419] | 0.75 µg/mL (≈ 0.898 µM) | 4 µg/mL (≈ 4.79 µM) | 32 µg/mL (≈ 38.3 µM) | – | – | – | – | – |
| Cc1cc(C(C)C)ccc1C(=O)N[C@@H](CCN)C(=O)N(C)[C@@H]1C(=O)N[C@@H](C)C(=O)N[C@H](C(=O)NCC#N)Cc2ccc(OCCN)c(c2)-c2cc1ccc2OCCN [Compound 433] | – | – | – | 0.094 µg/mL (≈ 0.118 µM) | – | – | 0.5 µg/mL (≈ 0.627 µM) | 4 µg/mL (≈ 5.01 µM) |
| Cc1cc(C2(C)CC2)ccc1C(=O)N[C@@H](CCN)C(=O)N(C)[C@@H]1C(=O)N[C@@H](C)C(=O)N[C@H](C(=O)NCC#N)Cc2ccc(OCCN)c(c2)-c2cc1ccc2OCCN [Compound 435] | – | – | – | 0.063 µg/mL (≈ 0.0778 µM) | 0.5 µg/mL (≈ 0.617 µM) | 4 µg/mL (≈ 4.94 µM) | – | – |
| Cc1cc(C2CC(c3ccccc3)C2)ccc1C(=O)N[C@@H](CCN)C(=O)N(C)[C@@H]1C(=O)N[C@@H](C)C(=O)N[C@H](C(=O)NCC#N)Cc2ccc(OCCN)c(c2)-c2cc1ccc2OCCN (stereo partly drawn) [Compound 441] | – | – | – | 0.016 µg/mL (≈ 0.0181 µM) | 0.063 µg/mL (≈ 0.0711 µM) | 1 µg/mL (≈ 1.13 µM) | – | – |
| Cc1c(C(=O)N[C@@H](CCN)C(=O)N(C)[C@@H]2C(=O)N[C@@H](C)C(=O)N[C@H](C(=O)NCC#N)Cc3ccc(OCCN)c(c3)-c3cc2ccc3OCCN)cnn1-c1ccc(CC(C)C)cc1 [Compound 444] | – | – | – | 0.031 µg/mL (≈ 0.0353 µM) | 0.094 µg/mL (≈ 0.107 µM) | 3 µg/mL (≈ 3.42 µM) | – | – |
| Cc1cc(-n2cc(C#CC(C)C)cn2)ccc1C(=O)N[C@@H](CCN)C(=O)N(C)[C@@H]1C(=O)N[C@@H](C)C(=O)N[C@H](C(=O)NCC#N)Cc2ccc(OCCN)c(c2)-c2cc1ccc2OCCN [Compound 446] | – | – | – | 0.012 µg/mL (≈ 0.0135 µM) | 0.063 µg/mL (≈ 0.0709 µM) | 0.5 µg/mL (≈ 0.563 µM) | – | – |
| CCCCCCCCc1ccc(C(=O)N[C@@H](CCN)C(=O)N(C)[C@@H]2C(=O)N[C@@H](C)C(=O)N[C@H](C(=O)NCC#N)Cc3ccc(OCCN)c(c3)-c3cc2ccc3OCCN)c(CCC(=O)O)c1 [Compound 447] | – | – | – | 0.012 µg/mL (≈ 0.013 µM) | 0.13 µg/mL (≈ 0.14 µM) | 2 µg/mL (≈ 2.16 µM) | – | – |
| CCCCCCCCc1ccc(C(=O)N[C@@H](CCN)C(=O)N(C)[C@@H]2C(=O)N[C@@H](C)C(=O)N[C@H](C(=O)NCC#N)Cc3ccc(OCCN)c(c3)-c3cc2ccc3OCCN)c(CCC#N)c1 [Compound 449] | – | – | – | 0.063 µg/mL (≈ 0.0694 µM) | – | – | 0.094 µg/mL (≈ 0.104 µM) | 1 µg/mL (≈ 1.1 µM) |
| CCCCCCCCc1ccc(C(=O)N[C@@H](CCN)C(=O)N(C)[C@@H]2C(=O)N[C@@H](C)C(=O)N[C@H](C(=O)NCC#N)Cc3ccc(OCCN)c(c3)-c3cc2ccc3OCCN)c(CCC(N)=O)c1 [Compound 451] | – | – | – | 0.016 µg/mL (≈ 0.0173 µM) | 0.023 µg/mL (≈ 0.0249 µM) | 2 µg/mL (≈ 2.16 µM) | – | – |
| CCCCCCCCCCN(CCN)CCC(=O)N(C)[C@@H]1C(=O)N[C@@H](C)C(=O)N[C@H](C(=O)NCC#N)Cc2ccc(OCCN)c(c2)-c2cc1ccc2OCCN [Compound 452] | – | – | – | 2 µg/mL (≈ 2.53 µM) | – | – | 0.19 µg/mL (≈ 0.24 µM) | 64 µg/mL (≈ 80.8 µM) |
| CCCCCCCCCCCC(=O)N[C@@H](CCC#N)C(=O)N(C)[C@@H]1C(=O)N[C@@H](C)C(=O)N[C@H](C(=O)NCC#N)Cc2ccc(OCCN)c(c2)-c2cc1ccc2OCCN [Compound 455] | – | – | – | 0.5 µg/mL (≈ 0.602 µM) | 0.5 µg/mL (≈ 0.602 µM) | 32 µg/mL (≈ 38.6 µM) | – | – |
| CCCCCCCCCCCCCC(=O)N[C@@H](CCN)C(=O)N(C)[C@@H]1C(=O)N[C@@H](C)C(=O)N[C@H](C(=O)NCC#N)Cc2ccc(OCCO)c(c2)-c2cc1ccc2OCCO [Compound 458] | – | – | – | 0.0078 µg/mL (≈ 0.00918 µM) | 0.25 µg/mL (≈ 0.294 µM) | 16 µg/mL (≈ 18.8 µM) | – | – |
| CCCCCCc1ccc(C(=O)N[C@@H](CCN)C(=O)N(C)[C@@H]2C(=O)N[C@@H](C)C(=O)N[C@H](C(=O)NCC#N)Cc3ccc(O)c(c3)-c3cc2ccc3O)c(C)c1 [Compound 466] | – | – | – | 0.063 µg/mL (≈ 0.0836 µM) | 0.25 µg/mL (≈ 0.332 µM) | 64 µg/mL (≈ 84.9 µM) | – | – |
| CCCCCCc1ccc(C(=O)N[C@@H](CCNC=N)C(=O)N(C)[C@@H]2C(=O)N[C@@H](C)C(=O)N[C@H](C(=O)NCC#N)Cc3ccc(O)c(c3)-c3cc2ccc3O)c(C)c1 [Compound 467] | – | – | – | 1 µg/mL (≈ 1.28 µM) | – | – | 1 µg/mL (≈ 1.28 µM) | > 64 µg/mL |
| CCCCCCCCCCCCCC(=O)N(C)[C@@H]1C(=O)N[C@@H](C)C(=O)N[C@H](C(=O)N[C@@H](C)C#N)Cc2ccc(OCCN)c(c2)-c2cc1ccc2OCCN [Compound 474] | – | – | – | 0.19 µg/mL (≈ 0.249 µM) | 2 µg/mL (≈ 2.62 µM) | 4 µg/mL (≈ 5.25 µM) | – | – |
| CCCCCCc1ccc(C(=O)N[C@@H](Cc2ccncc2)C(=O)N(C)[C@@H]2C(=O)N[C@@H](C)C(=O)N[C@H](C(=O)NCC#N)Cc3ccc(OCCN)c(c3)-c3cc2ccc3OCCN)c(C)c1 [Compound 479] | – | – | – | 0.5 µg/mL (≈ 0.563 µM) | 0.25 µg/mL (≈ 0.282 µM) | 32 µg/mL (≈ 36 µM) | – | – |
